Source: ChEMBL document CHEMBL1255359, “Mechanisms of macrolide resistance among Streptococcus pneumoniae isolates from Russia” (2008)
Values after ≈ are worked out from the molar mass of the structure shown.

Legend:
Format in all cases: functional
Streptococcus pneumoniae [1] = assay: Antibacterial activity against macrolide resistant and mef(E)-positive Streptococcus pneumoniae by broth dilution method
Streptococcus pneumoniae [2] = assay: Antibacterial activity against macrolide resistant and mef(I)-positive Streptococcus pneumoniae by broth dilution method
Streptococcus pneumoniae [3] = assay: Antibacterial activity against macrolide resistant and mef-positive Streptococcus pneumoniae by broth dilution method
Streptococcus pneumoniae [4] = assay: Antibacterial activity against inducible macrolide-lincosamide-streptogramin B resistant and erm(B)-positive Streptococcus pneumoniae by broth dilution method
Streptococcus pneumoniae [5] = assay: Antibacterial activity against constitutive macrolide-lincosamide-streptogramin B resistant and erm(B)-positive Streptococcus pneumoniae by broth dilution method
Streptococcus pneumoniae [6] = assay: Antibacterial activity against inducible macrolide-lincosamide-streptogramin B resistant erm(B) and mef(E)-positive Streptococcus pneumoniae by broth dilution method
Streptococcus pneumoniae [7] = assay: Antibacterial activity against constitutive macrolide-lincosamide-streptogramin B resistant erm(B) and mef(E)-positive Streptococcus pneumoniae by broth dilution method

SMILES	MIC (Streptococcus pneumoniae [1]) [µg/mL]	MIC (Streptococcus pneumoniae [2]) [µg/mL]	MIC (Streptococcus pneumoniae [3]) [µg/mL]	MIC (Streptococcus pneumoniae [4]) [µg/mL]	MIC (Streptococcus pneumoniae [5]) [µg/mL]	MIC (Streptococcus pneumoniae [6]) [µg/mL]	MIC (Streptococcus pneumoniae [7]) [µg/mL]
CC[C@H]1OC(=O)[C@H](C)[C@@H](O[C@H]2C[C@@](C)(OC)[C@@H](O)[C@H](C)O2)[C@H](C)[C@@H](O[C@@H]2O[C@H](C)C[C@H](N(C)C)[C@H]2O)[C@](C)(O)C[C@@H](C)C(=O)[C@H](C)[C@@H](O)[C@]1(C)O [ERYTHROMYCIN]	1 (≈ 1.36 µM)	2 (≈ 2.73 µM)	8 (≈ 10.9 µM)	≥ 2	≥ 32	≥ 32	≥ 32
CCC[C@@H]1C[C@@H](C(=O)N[C@@H]([C@H]2O[C@H](SC)[C@H](O)[C@@H](O)[C@H]2O)[C@H](C)Cl)N(C)C1 [CLINDAMYCIN]	0.015 (≈ 0.0353 µM)	0.015 (≈ 0.0353 µM)	0.03 (≈ 0.0706 µM)	≥ 2	≥ 32	≥ 32	≥ 8
